Where only a bound is given, the exact number is not on record here.

This assay has as its system KU1919.1. The assay can be described thus: Cell Titer Glo (CTG) proliferation assay, KU1919. The following applies: Homo sapiens, KU-19-19; KU1919.1 cells, 72.0 hrs.; read-out: AVE CTG Proliferation KU1919.1 72.0 hrs. Format: cell-based. Here is the method: Seed cells in 40 μL of cell culture media into each well of 384-well cell culture plate, spin them at room temperature at 1,000 RPM for 1 minute and then transfer the plates into 37° C. 5% CO2 incubator overnight. Next day, treat cells with 40 nL of diluted compound and return to incubator. After compound treatment for 3 days, Add 30 μL of CellTiter-Glo reagent (Promega) into each well to be detected. Then place the plates at room temperature for 30 min followed by reading on EnVision. Inhibition activity calculated as % DMSO=100×(LumSample-Lum low control)/(Lum high control-Lum low control) where high control is from cells treated with 0.1% DMSO and Low control obtained from PBS only. Use XLFit (equation 201) to calculate IC50 (A+ ((B−A)/(1[…]((x/C)^D)))) where A: Bottom, B: Top, C: IC50, D: Slope.
For `CCc1cccc(-c2cc(F)c(C(=O)N3CCC(CN4CCN(CC[C@H](NC(=O)C5(N)CCN(c6ncnc7[nH]ccc67)CC5)c5ccc(Cl)cc5)CC4)CC3)c(F)c2)c1` [Compound I-263], the IC50 was 1 to 5 µM. Take `NC1(C(=O)N[C@@H](CCN2CCN(C(=O)CN3CCC(OC4CCN(C(=O)[C@H](NC(=O)c5cccc(C6CC6)c5F)C5CCCCC5)CC4)CC3)CC2)c2ccc(Cl)cc2)CCN(c2ncnc3[nH]ccc23)CC1` [Compound I-270]: the IC50 fell in the range of 1 to 5 µM. The figure for `NC1(C(=O)N[C@@H](CCN2CCC(OC3CCN(C(=O)[C@H](NC(=O)c4cc(C5CCCN(C(=O)C6CC6)C5)ccc4F)C4CCCCC4)CC3)CC2)c2ccc(Cl)cc2)CCN(c2ncnc3[nH]ccc23)CC1` (stereo partly shown) [Compound I-221] is 1 to 5 µM. To `CC(C)(C)OC(=O)N[C@@H](C(=O)NCCCCS(=O)(=O)NCC[C@H](NC(=O)C1(N)CCN(c2ncnc3[nH]ccc23)CC1)c1ccc(Cl)cc1)C1CCCCC1` [Compound I-309] belongs 1 to 5 µM. To `NC1(C(=O)N[C@@H](CCNS(=O)(=O)CCCCNC(=O)[C@H](NC(=O)c2cccc(C3CN(C(=O)CNCc4ccc(F)cc4F)C3)c2)C2CCCCC2)c2ccc(Cl)cc2)CCN(c2ncnc3[nH]ccc23)CC1` [Compound I-238] belongs over 10 µM; to `NC1(C(=O)N[C@@H](CCN2CCC(OC3CCN(C(=O)c4cccc(C5CCCN(C(=O)CNCc6ccc(F)cc6F)C5)c4F)CC3)CC2)c2ccc(Cl)cc2)CCN(c2ncnc3[nH]ccc23)CC1` (stereo partly shown) [Compound I-289], 1 to 5 µM. Take `CCc1cccc(-c2cc(F)c(C(=O)N3CCC(OC4CCN(CC[C@H](NC(=O)C5(N)CCN(c6ncnc7[nH]ccc67)CC5)c5ccc(Cl)cc5)CC4)CC3)c(F)c2)c1` [Compound I-280]: the IC50 fell in the range of 1 to 5 µM. The figure for `NC1(C(=O)N[C@@H](CCN2CCC(OC3CCN(C(=O)[C@H](NC(=O)c4cccc(C5CC5)c4F)C4CCCCC4)CC3)CC2)c2ccc(Cl)cc2)CCN(c2ncnc3[nH]ccc23)CC1` [Compound I-260] is 1 to 5 µM; for `NC1(C(=O)N[C@@H](CCOCCCCCNC(=O)[C@H](NC(=O)c2cccc(C3CCCN(C(=O)C45CC(C4)C5)C3)c2)C2CCCCC2)c2ccc(Cl)cc2)CCN(c2ncnc3[nH]ccc23)CC1` (stereo partly shown) [Compound I-296] it is over 10 µM. To `C[C@@H]1C[C@@H](O)c2ncnc(N3CCN(C(=O)[C@H](CN4CCC(OC5CCN(C(=O)[C@H](NC(=O)c6cccc(C7CCCN(C(=O)C89CC(C8)C9)C7)c6F)C6CCCCC6)CC5)CC4)c4ccc(Cl)cc4)CC3)c21` (stereo partly shown) [Compound I-292] belongs 1 to 5 µM; to `NC1(C(=O)N[C@@H](CCN2CCC(OC3CCN(C(=O)[C@H](NC(=O)c4cccc(C5CN(C(=O)C6CC6)C5)c4)C4CCCCC4)CC3)CC2)c2ccc(Cl)cc2)CCN(c2ncnc3[nH]ccc23)CC1` [Compound I-243], 1 to 5 µM; to `NC1(C(=O)N[C@@H](CCOCCCCCNC(=O)[C@H](NC(=O)c2cccc(C3CCCN(C(=O)CNC4CC4)C3)c2)C2CCCCC2)c2ccc(Cl)cc2)CCN(c2ncnc3[nH]ccc23)CC1` (stereo partly shown) [Compound I-298], 1 to 5 µM. To `C[C@@H]1C[C@@H](O)c2ncnc(N3CCN(C(=O)[C@H](CCN4CCC(CN5CCN(C(=O)[C@H](NC(=O)c6cccc(C7CCCN(C(=O)C8CC8)C7)c6)C6CCCCC6)CC5)CC4)c4ccc(Cl)cc4)CC3)c21` (stereo partly shown) [Compound I-265] belongs 1 to 5 µM; to `NC1(C(=O)N[C@@H](CCNC(=O)[C@H](NC(=O)C2CC2)C2CCCCC2)c2ccc(Cl)cc2)CCN(c2ncnc3[nH]ccc23)CC1` [Compound I-237], 5 to 10 µM. In the case of `NC1(C(=O)N[C@@H](CCN2CCC(OC3CCN(C(=O)[C@H](NC(=O)c4cccc(C5CCN(C(=O)C6CC6)CC5)c4F)C4CCCCC4)CC3)CC2)c2ccc(Cl)cc2)CCN(c2ncnc3[nH]ccc23)CC1` [Compound I-288], the IC50 lay in the range of 1 to 5 µM. The figure for `NC1(C(=O)N[C@@H](CCNS(=O)(=O)CCCCNC(=O)[C@H](NC(=O)c2cccc(C3CCCN(C(=O)C4CC4)C3)c2)C2CCCCC2)c2ccc(Cl)cc2)CCN(c2ncnc3[nH]ccc23)CC1` (stereo partly shown) [Compound I-234] is over 10 µM; for `NC1(C(=O)N[C@@H](CCN2CCN(C(=O)CN3CCC(OC4CCN(C(=O)[C@H](NC(=O)c5ccc(C6CN(C(=O)C7CC7)C6)cc5)C5CCCCC5)CC4)CC3)CC2)c2ccc(Cl)cc2)CCN(c2ncnc3[nH]ccc23)CC1` [Compound I-229] it is 1 to 5 µM. Consider `NC1(C(=O)N[C@@H](CCN2CCN(C(=O)C34CCC(CN5CCN(C(=O)[C@H](NC(=O)c6cccc(C7CCCN(C(=O)C8CC8)C7)c6)C6CCCCC6)CC5)(CC3)OC4)CC2)c2ccc(Cl)cc2)CCN(c2ncnc3[nH]ccc23)CC1` (stereo partly shown) [Compound I-232], for which the IC50 was over 10 µM. The figure for `CC(C)(C)OC(=O)N[C@@H](C(=O)N1CCC(OC2CCN(CC[C@H](NC(=O)C3(N)CCN(c4ncnc5[nH]ccc45)CC3)c3ccc(Cl)cc3)CC2)CC1)C1CCCCC1` [Compound I-311] is 0.5 to 1 µM; for `C[C@@H]1C[C@@H](O)c2ncnc(N3CCN(C(=O)[C@H](CCN4CCC(CN5CCN(C(=O)[C@H](NC(=O)c6cccc(C7CCCN(C(=O)CNC8CC8)C7)c6)C6CCCCC6)CC5)CC4)c4ccc(Cl)cc4)CC3)c21` (stereo partly shown) [Compound I-272] it is 1 to 5 µM. Turning to `C[C@@H]1C[C@@H](O)c2ncnc(N3CCN(C(=O)[C@H](CNCCNC(=O)CN4CCC(OC5CCN(C(=O)OC(C)(C)C)CC5)CC4)c4ccc(Cl)cc4)CC3)c21` [Compound I-314], the IC50 was in the range of 1 to 5 µM. The figure for `NC1(C(=O)N[C@@H](CCN2CCC(OC3CCN(C(=O)[C@H](NC(=O)c4cccc(C5CCCN(C(=O)CNCc6ccc(F)cc6F)C5)c4)C4CCCCC4)CC3)CC2)c2ccc(Cl)cc2)CCN(c2ncnc3[nH]ccc23)CC1` (stereo partly shown) [Compound I-251] is 0.5 to 1 µM; for `C=CC(=O)N1CCN(c2ccc(CCC(=O)NCCOCCNCC[C@H](NC(=O)C3(N)CCN(c4ncnc5[nH]ccc45)CC3)c3ccc(Cl)cc3)o2)C(=O)C1` [Compound I-287] it is over 10 µM. Take `NC1(C(=O)N[C@@H](CCN2CCC(OC3CCN(C(=O)[C@H](NC(=O)c4cccc(C5CN(C(=O)CNCc6ccc(F)cc6F)C5)c4)C4CCCCC4)CC3)CC2)c2ccc(Cl)cc2)CCN(c2ncnc3[nH]ccc23)CC1` [Compound I-245]: the IC50 lay within 0.5 to 1 µM. The figure for `C[C@@H]1C[C@@H](O)c2ncnc(N3CCN(C(=O)[C@H](CNCCNC(=O)CNC45CCC(CN6CCN(C(=O)[C@H](NC(=O)c7cccc(C8CCCN(C(=O)CNC9CC9)C8)c7)C7CCCCC7)CC6)(CC4)OC5)c4ccc(Cl)cc4)CC3)c21` (stereo partly shown) [Compound I-326] is 5 to 10 µM.

Take `C[C@@H]1C[C@@H](O)c2ncnc(N3CCN(C(=O)[C@H](CN4CCC(OC5CCN(C(=O)[C@H](NC(=O)OC(C)(C)C)C6CCCCC6)CC5)CC4)c4ccc(Cl)cc4)CC3)c21` [Compound I-276]: the IC50 lay in the range of 1 to 5 µM. To `CC(C)(C)OC(=O)N[C@@H](C(=O)NCC[C@H](NC(=O)C1(N)CCN(c2ncnc3[nH]ccc23)CC1)c1ccc(Cl)cc1)C1CCCCC1` [Compound I-313] belongs 1 to 5 µM; to `NC1(C(=O)N[C@@H](CCN2CCC(OC3CCN(C(=O)[C@H](NC(=O)c4cccc(C5CCCN(C(=O)C6CC6)C5)c4)C4CCCCC4)CC3)CC2)c2ccc(Cl)cc2)CCN(c2ncnc3[nH]ccc23)CC1` (stereo partly shown) [Compound I-249], 1 to 5 µM. The figure for `NC1(C(=O)N[C@@H](CCOCCN2CCC(OC3CCN(C(=O)[C@H](NC(=O)c4cccc(C5CCCN(C(=O)C67CC(C6)C7)C5)c4)C4CCCCC4)CC3)CC2)c2ccc(Cl)cc2)CCN(c2ncnc3[nH]ccc23)CC1` (stereo partly shown) [Compound I-293] is 1 to 5 µM. The figure for `NC1(C(=O)N[C@@H](CCOCCN2CCC(OC3CCN(C(=O)[C@H](NC(=O)c4cccc(C5CCCN(C(=O)CNC6CC6)C5)c4)C4CCCCC4)CC3)CC2)c2ccc(Cl)cc2)CCN(c2ncnc3[nH]ccc23)CC1` (stereo partly shown) [Compound I-295] is 1 to 5 µM.

Regarding `C[C@@H]1C[C@@H](O)c2ncnc(N3CCN(C(=O)[C@H](CNCCNC(=O)CN4CCC(OC5CCN(C(=O)[C@H](NC(=O)c6cccc(C7CCCN(C(=O)C8CC8)C7)c6F)C6CCCCC6)CC5)CC4)c4ccc(Cl)cc4)CC3)c21` (stereo partly shown) [Compound I-264], the IC50 lay in the range of 1 to 5 µM.

Regarding `NC1(C(=O)N[C@@H](CCN2CCC(OC3CCN(C(=O)[C@H](NC(=O)c4ccc(C5CCN(C(=O)C6CC6)CC5)cc4)C4CCCCC4)CC3)CC2)c2ccc(Cl)cc2)CCN(c2ncnc3[nH]ccc23)CC1` [Compound I-231], the IC50 fell in the range of 1 to 5 µM. To `C[C@@H]1C[C@@H](O)c2ncnc(N3CCN(C(=O)[C@@H](CCN4CCC(CN5CCN(C(=O)[C@H](NC(=O)c6cccc(C7CCCN(C(=O)C8CC8)C7)c6)C6CCCCC6)CC5)CC4)c4ccc(Cl)cc4)CC3)c21` (stereo partly shown) [Compound I-266] belongs 1 to 5 µM; to `C=CC(=O)N1CCN(c2ccc(CCC(=O)N3CCN(CC4CCN(CC[C@H](NC(=O)C5(N)CCN(c6ncnc7[nH]ccc67)CC5)c5ccc(Cl)cc5)CC4)CC3)o2)C(=O)C1` [Compound I-286], 1 to 5 µM; to `CC(C)(C)OC(=O)N[C@@H](C(=O)N1CCN(CC23CCC(C(=O)N4CCN(CC[C@H](NC(=O)C5(N)CCN(c6ncnc7[nH]ccc67)CC5)c5ccc(Cl)cc5)CC4)(CC2)CO3)CC1)C1CCCCC1` [Compound I-308], 1 to 5 µM. The figure for `NC1(C(=O)N[C@@H](CCN2CCN(C(=O)CN3CCC(CN4CCN(C(=O)[C@H](NC(=O)c5cccc(C6CCCN(C(=O)C7CC7)C6)c5)C5CCCCC5)CC4)CC3)CC2)c2ccc(Cl)cc2)CCN(c2ncnc3[nH]ccc23)CC1` (stereo partly shown) [Compound I-247] is 1 to 5 µM; for `NC1(C(=O)N[C@@H](CCNS(=O)(=O)CCCCNC(=O)[C@H](NC(=O)c2cccc(C3CN(C(=O)C4CC4)C3)c2)C2CCCCC2)c2ccc(Cl)cc2)CCN(c2ncnc3[nH]ccc23)CC1` [Compound I-228] it is over 10 µM.
